Laboratory results published in publication PMC9653966, “Simultaneous Degradation Study of Isomers in Human Plasma by HPLC-MS/MS and Application of LEDA Algorithm for Their Characterization” (International Journal of Molecular Sciences, 2022).
Read-outs that look alike come from different tables or passages of the source.

Columns and labels:
[1] = Chemical stability test in human plasma (enzymatic hydrolysis, HPLC-MS/MS); type: in vitro ADME; conditions: for LEDA195–221 k ± 2SD (degradation rate): LEDA195–221 matrix (Table S4); for behaviour towards plasma enzymes (hydrolysis or stable) / half-life at 1 µM: human plasma; for behaviour towards plasma enzymes (hydrolysis or stable): all sample sets (pure isomer and mixture), up to 120 min at 37 °C; for half-life at 1 µM: human
Method: The present investigation was carried out to evaluate the variation of hydrolytic activity of the human plasma enzymatic system when two potential substrates were simultaneously present. […] Therefore, the human plasma sample solutions, prepared with a mixture of isomers, presented both a substrate and a potential interference, which could influence the enzyme functionality. To correctly monitor this process, it must be possible to distinguish each isomer present in the sample, quantify it with the proper calibration curve and plot its degradation profile. The LEDA algorithm was used to support this investigation and to test its quali-quantitative ability in a complex matrix of human plasma samples. The experimental plan involved the analysis of three series of human plasma samples for each couple of isomers: two series of samples were added to a pure isomer, to check the activity of the plasma enzyme system without interferences, and the last series of samples were spiked with the equimolar mixture of isomers. The series of samples were prepared, as described in Section 4.6 and analyzed with the proper HPLC-MS/MS method. The acquired data were processed with the conventional quantitative method for the series containing the single isomers, and with the LEDA approach for the samples spiked with the mixture of isomers. The samples containing a single isomer were worked out by the integration of quantitative Pi signal and the estimation of PAR value by dividing with IS abundance, and quantitative determination of the analyte in the sample was obtained by using the proper calibration curve. In contrast, in the samples spiking with the mixture of isomers, each proposed LEDA matrix recognized the relative concentration of the isomers present in the sample. Therefore, their abundance in the precursor ion signal (or Ri signal) were assigned, each PAR value calculated by dividing with the IS abundance, and quantitative determination of the analytes in the sample were performed by using the respective precursor ion calibration curve. In Figure 6, an example of the degradation plots of the mixtures of the ELF94 and ELF96 isomers is shown, while all the degradation profiles are reported in the Supplementary Material (Figures S20–S25).
Each sample was prepared by adding 10 µL of proper spiked solution to 100 µL of human plasma matrix in a 1.5 mL microcentrifuge tube. The obtained solution corresponds to 1 μM of analyte that undergo degradation study. Each set of samples was prepared in triplicate and incubated for four different times: 0, 30, 60, and 120 min at 37 °C. Therefore, each stability panel of studied analyte was represented by a batch of 12 samples (4 incubation times, 3 replicates). After the incubation, 300 µL of IS solution was added to the sample and then centrifuged (room temperature for 5 min at 800× g). Then, the supernatant was transferred to autosampler vials, dried under a gentle stream of nitrogen and dissolved in 1.0 mL of 10 mM of formic acid in mQ water:acetonitrile 80:20 solution [23, 24, 25, 27, 28, 29, 30]. Each sample batch included the blank samples of human plasma matrix, prepared as described above, with the addition only of the IS solution. Thus, the analysis of the blank samples can check any interference in the analyte MRM signals due to the matrix components. Three sets of six replicates for each analyte were prepared to evaluate the matrix effect (ME) and the analyte recovery (RE) of the proposed method. The same evaluation was extended to the IS to verify its reliability as a quantitative reference. Set A was prepared by mixing 10 µL of spiked solution with 300 µL of IS solution. Set B was obtained by mixing 100 µL of plasma with 300 µL of acetonitrile and, after centrifugation and separation of the supernatant, by adding 10 µL of spiked solution to each analyte or 300 µL of IS solution. […]

[2] = design: method as in PMID 27882889, PMID 29536775, PMID 35753165, PMID 30947123; conditions: check of hydrolytic activity of the plasma pool; own degradation plot comparable to literature value; cited from earlier work
[3] = human plasma spiked with equimolar mixture of the isomer pair, 1 μM each, 37 °C, LEDA195–221 matrix
[4] = human plasma spiked with isomers mixture
[5] = human plasma spiked with isomers mixture, LEDAall matrix (Table S4)
[6] = human plasma spiked with the pure isomer, 1 μM, 37 °C, 0-120 min, conventional quantitative processing
[7] = human plasma spiked with equimolar mixture of the isomer pair, 1 μM each, 37 °C, LEDA195–221 matrix, read-out: Mix t1/2 ± 2SD
[8] = human plasma spiked with isomers mixture, LEDAall matrix (Table S4), read-out: LEDAall t1/2 ± 2SD
[9] = human plasma spiked with the pure isomer, 1 μM, 37 °C, 0-120 min, conventional quantitative processing, read-out: Pure Isomer t1/2 ± 2SD

SMILES | Mix k ± 2SD (degradation rate) [1, 3] | LEDA195–221 k ± 2SD (degradation rate) [1, 4] | LEDAall k ± 2SD (degradation rate) [1, 5] | Pure Isomer k ± 2SD (degradation rate) [1, 6] | behaviour towards plasma enzymes (hydrolysis or stable) [1] | half-life at 1 µM [1, 7] [min] | half-life at 1 µM [1, 8] [min] | half-life at 1 µM [1, 9] [min] | t1/2 of the reference compound in human plasma [2] [min]
COc1cc(/C=C/C(=O)OCCCN(C)CCCCCCOC(=O)c2cc(OC)c(OC)c(OC)c2)cc(OC)c1OC [ELF94] | −0.023 ± 0.005 ln(μM)/min | −0.023 ± 0.005 ln(M)/min | −0.023 ± 0.003 ln(M)/min | −0.014 ± 0.001 ln(μM)/min | hydrolysis | 34 ± 14 | 34 ± 15 | 49 ± 18 | 
COc1cc(/C=C/C(=O)OCCCCCCN(C)CCCOC(=O)c2cc(OC)c(OC)c(OC)c2)cc(OC)c1OC [ELF96] | <0.006 ln(μM)/min | < 0.006 ln(M)/min | < 0.006 ln(M)/min | <0.006 ln(μM)/min | remained constant | > 120 | > 120 | > 120 | 
CCOC(=O)C(C)c1cccc(C(=O)c2ccccc2)c1 (stereo not drawn) [KEE, Ketoprofen ethyl ester] |  |  |  |  |  |  |  |  | ≤ 120

Further lines, with some results ahead:

Mix k ± 2SD (degradation rate) [1, 3] | LEDA195–221 k ± 2SD (degradation rate) [1, 4] | LEDAall k ± 2SD (degradation rate) [1, 5] | Pure Isomer k ± 2SD (degradation rate) [1, 6] | behaviour towards plasma enzymes (hydrolysis or stable) [1] | half-life at 1 µM [1, 7] [min] | half-life at 1 µM [1, 8] [min] | half-life at 1 µM [1, 9] [min] | SMILES | t1/2 of the reference compound in human plasma [2] [min]
−0.019 ± 0.003 ln(μM)/min | −0.019 ± 0.003 ln(M)/min | −0.019 ± 0.005 ln(M)/min | −0.017 ± 0.001 ln(μM)/min | hydrolysis | 32 ± 18 | 32 ± 19 | 43 ± 16 | COc1cc(/C=C/C(=O)OCCCN(C)CCCCCOC(=O)c2cc(OC)c(OC)c(OC)c2)cc(OC)c1OC [FRA76] | 
<0.006 ln(μM)/min | < 0.006 ln(M)/min | < 0.006 ln(M)/min | <0.006 ln(μM)/min | remained constant | > 120 | > 120 | > 120 | COc1cc(/C=C/C(=O)OCCCCCN(C)CCCOC(=O)c2cc(OC)c(OC)c(OC)c2)cc(OC)c1OC [GDE5] | 
